Reference: patent publication US12180207B2 (ARRAY BIOPHARMA INC., priority 2018, dated 2024)

Tests used:
[1] = target: HEK-293 cells transfected with dox-inducible human wild type FGFR1 (Homo sapiens (Human), UniProt P11362); assay: FGFR1 pERK cell assay; format: cell-based; details: HEK-293 dox-inducible FGFR1, 1 hour compound, 100 ng/ml FGF-acidic; maximum concentration 5 μM
Outline: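 In HEK-293 cells with dox-induced human wild-type FGFR1, compounds (1:3 dilutions, top 5 μM final) were applied 1 h at 37°C before 5 min stimulation with 100 ng/ml FGF-acidic. Phospho-ERK1/2 measured by MSD sandwich immunoassay; IC50 from 4-parameter fit of POC versus vehicle and control compound.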

[2] = target: T1, HEK-293 cells transfected with dox-inducible human wild type FGFR3 (Homo sapiens (Human), UniProt P22607); assay: FGFR3 pFGFR cell assay (ELISA); format: cell-based; details: HEK-293 dox-inducible FGFR3, 1 hour compound, 100 ng/ml FGF-acidic
T1 sequence (P22607 23-806): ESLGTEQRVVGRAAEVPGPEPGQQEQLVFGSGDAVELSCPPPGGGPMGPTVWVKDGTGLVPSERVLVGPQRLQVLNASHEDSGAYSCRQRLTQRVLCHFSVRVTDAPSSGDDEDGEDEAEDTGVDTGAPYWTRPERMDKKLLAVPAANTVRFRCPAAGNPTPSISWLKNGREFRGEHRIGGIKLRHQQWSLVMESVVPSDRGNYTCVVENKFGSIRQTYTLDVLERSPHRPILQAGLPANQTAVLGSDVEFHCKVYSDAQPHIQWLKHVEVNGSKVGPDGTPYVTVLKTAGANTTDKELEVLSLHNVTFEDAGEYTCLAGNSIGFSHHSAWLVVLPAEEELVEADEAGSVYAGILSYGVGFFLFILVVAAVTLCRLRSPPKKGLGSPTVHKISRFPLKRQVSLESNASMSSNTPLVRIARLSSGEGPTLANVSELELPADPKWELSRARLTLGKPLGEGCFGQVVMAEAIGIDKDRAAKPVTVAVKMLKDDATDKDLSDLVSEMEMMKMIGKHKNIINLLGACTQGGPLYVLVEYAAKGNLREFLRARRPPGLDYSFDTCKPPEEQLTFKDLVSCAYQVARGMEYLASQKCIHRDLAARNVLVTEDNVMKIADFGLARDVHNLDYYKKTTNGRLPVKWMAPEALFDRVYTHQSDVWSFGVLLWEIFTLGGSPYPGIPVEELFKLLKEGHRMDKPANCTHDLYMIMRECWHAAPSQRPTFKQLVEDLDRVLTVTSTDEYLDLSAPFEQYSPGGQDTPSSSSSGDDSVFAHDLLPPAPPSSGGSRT
Outline: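 Doxycycline-induced (1 μg/ml) HEK-293 cells expressing wild-type human FGFR3, treated 1 h with compound (1:3 series, top final 5 μM), then stimulated 5 min with 100 ng/ml FGF-acidic. Phospho-FGFR3 measured by ELISA (total FGFR3 capture, phosphotyrosine detection, OD 450 nm); IC50 from 4-parameter fit of POC values.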

dephosphorylated FGFR2 = dephosphorylated FGFR2 (Homo sapiens (Human), UniProt P21802); assay: FGFR enzyme binding assay (HTRF tracer displacement), FGFR2; details: 5 nM dephosphorylated FGFR2, average of multiple determinations if made
Chain of dephosphorylated FGFR2 (P21802 22-821): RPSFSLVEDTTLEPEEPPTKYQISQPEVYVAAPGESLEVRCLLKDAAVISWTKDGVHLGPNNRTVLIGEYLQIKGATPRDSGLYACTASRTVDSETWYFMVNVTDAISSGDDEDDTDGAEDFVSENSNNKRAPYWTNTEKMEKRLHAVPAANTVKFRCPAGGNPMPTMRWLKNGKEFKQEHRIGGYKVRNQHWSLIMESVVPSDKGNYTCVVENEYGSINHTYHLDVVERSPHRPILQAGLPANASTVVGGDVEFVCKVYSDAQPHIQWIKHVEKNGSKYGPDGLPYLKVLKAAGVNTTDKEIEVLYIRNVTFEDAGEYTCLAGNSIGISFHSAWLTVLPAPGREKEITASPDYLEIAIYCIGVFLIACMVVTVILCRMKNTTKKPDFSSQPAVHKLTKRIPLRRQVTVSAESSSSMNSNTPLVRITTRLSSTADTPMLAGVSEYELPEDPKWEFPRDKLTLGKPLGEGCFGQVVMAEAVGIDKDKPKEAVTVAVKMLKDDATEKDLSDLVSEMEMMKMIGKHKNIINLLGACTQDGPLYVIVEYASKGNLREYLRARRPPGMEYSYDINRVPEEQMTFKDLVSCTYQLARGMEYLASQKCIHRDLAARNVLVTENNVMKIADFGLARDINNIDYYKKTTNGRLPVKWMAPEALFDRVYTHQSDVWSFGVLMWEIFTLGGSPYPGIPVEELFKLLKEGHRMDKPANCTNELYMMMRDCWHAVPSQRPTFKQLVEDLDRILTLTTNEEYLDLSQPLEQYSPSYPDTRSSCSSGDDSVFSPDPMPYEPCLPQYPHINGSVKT
Outline: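 Compounds were tested for displacement of a tracer from human FGFR kinase in a time-resolved FRET binding format. After 60 minutes at 22° C, signal was read at two wavelengths and converted to percent of control, normalised between untreated wells and 1 μM reference inhibitor.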

[3] = target: T1, HEK-293 cells transfected with dox-inducible human wild type FGFR3; assay: FGFR3 pERK cell assay; format: cell-based; details: HEK-293 dox-inducible FGFR3, 1 hour compound, 100 ng/ml FGF-acidic; maximum concentration 5 μM
Outline: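 Doxycycline-induced cells preincubated 1 h at 37 °C with compound (1:3 dilutions, top 5 μM final), then stimulated 5 min with 100 ng/ml FGF-acidic. Lysate phospho-ERK1/2 measured by MSD sandwich assay; IC50 at 50 POC from 4-parameter fit, normalised to no-compound and control-compound wells.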

[4] = target: recombinant human FGFR2 cytoplasmic domain (amino acids 403-822) (Homo sapiens (Human), UniProt P21802); assay: FGFR2 enzyme activity assay (LanthaScreen TR-FRET); format: biochemical; details: 15 μM ATP, 20 min incubation at 22° C., average of multiple determinations if made, read-out: FGFR2 Enz FRET IC50
Chain of recombinant human FGFR2 cytoplasmic domain (amino acids 403-822) (P21802 402-821): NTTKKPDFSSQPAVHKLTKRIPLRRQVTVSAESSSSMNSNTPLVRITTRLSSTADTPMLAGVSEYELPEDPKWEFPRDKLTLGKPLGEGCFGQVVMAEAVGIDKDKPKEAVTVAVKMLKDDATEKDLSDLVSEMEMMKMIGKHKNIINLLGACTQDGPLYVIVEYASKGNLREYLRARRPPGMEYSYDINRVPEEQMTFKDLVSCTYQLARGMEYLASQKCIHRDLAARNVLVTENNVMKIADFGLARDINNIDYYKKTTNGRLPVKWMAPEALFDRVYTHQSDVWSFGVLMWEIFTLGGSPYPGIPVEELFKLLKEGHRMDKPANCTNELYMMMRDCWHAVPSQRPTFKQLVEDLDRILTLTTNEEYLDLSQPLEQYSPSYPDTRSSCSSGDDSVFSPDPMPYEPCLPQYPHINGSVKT
Outline: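 His-tagged FGFR2 cytoplasmic domain ([…]) with 100 nM Alexa Fluor 647-poly-GT peptide and 15 μM ATP in HEPES/MgCl2/Triton buffer, pH 7.5, 2% DMSO, 20 min at 22 °C. EDTA-quenched, Eu-PY20 antibody added, TR-FRET read after 60 min.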

Chain of HEK-293 cells transfected with dox-inducible human wild type FGFR1 (P11362 22-822): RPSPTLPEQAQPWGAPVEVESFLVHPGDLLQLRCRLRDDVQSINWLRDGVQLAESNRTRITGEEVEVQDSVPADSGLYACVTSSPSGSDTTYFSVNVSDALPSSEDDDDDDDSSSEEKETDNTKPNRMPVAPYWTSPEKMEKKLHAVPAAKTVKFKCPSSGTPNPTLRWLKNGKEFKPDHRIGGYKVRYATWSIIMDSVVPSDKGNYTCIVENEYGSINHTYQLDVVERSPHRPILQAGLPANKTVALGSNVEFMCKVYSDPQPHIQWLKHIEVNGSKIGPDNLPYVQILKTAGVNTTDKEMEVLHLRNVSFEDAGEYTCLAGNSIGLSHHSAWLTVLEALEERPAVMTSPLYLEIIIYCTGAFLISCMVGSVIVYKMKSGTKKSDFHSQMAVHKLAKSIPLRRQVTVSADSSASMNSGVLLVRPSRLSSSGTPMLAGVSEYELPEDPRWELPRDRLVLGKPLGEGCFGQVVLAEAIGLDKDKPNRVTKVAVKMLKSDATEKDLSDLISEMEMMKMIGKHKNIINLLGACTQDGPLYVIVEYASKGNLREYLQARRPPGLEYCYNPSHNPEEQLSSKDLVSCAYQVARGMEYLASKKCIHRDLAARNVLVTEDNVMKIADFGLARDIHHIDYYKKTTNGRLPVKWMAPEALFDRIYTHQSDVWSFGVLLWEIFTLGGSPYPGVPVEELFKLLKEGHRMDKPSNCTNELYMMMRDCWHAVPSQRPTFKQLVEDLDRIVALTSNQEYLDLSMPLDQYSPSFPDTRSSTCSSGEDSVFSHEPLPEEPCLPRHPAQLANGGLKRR

SMILES | IC50 [1] | IC50 [2] | IC50 (dephosphorylated FGFR2) | IC50 [3] | IC50 [4]
C=CC(=O)N1CC[C@@H](C(=O)N2CCC(n3ncc(-c4cc(OC)c5c(C#N)cnn5c4)c3C)CC2)C1 [Example 83, (R)-6-(1-(1-(1-acryloylpyrrolidine-3-carbonyl)piperidin-4-yl)-5-methyl-1H-pyrazol-4-yl)-4-methoxypyrazolo[1,5-a]pyridine-3-carbonitrile] | ≥ 5 µM | 0.546 µM | 0.017 µM | 0.549 µM | 0.009 µM
C=CC(=O)N1CC(C(=O)N2CCC(n3ncc(-c4cc(OC)c5c(C#N)cnn5c4)c3C)CC2)C1 [Example 84, 6-(1-(1-(1-acryloylazetidine-3-carbonyl)piperidin-4-yl)-5-methyl-1H-pyrazol-4-yl)-4-methoxypyrazolo[1,5-a]pyridine-3-carbonitrile] | 2.53 µM | 0.077 µM | 0.021 µM | 0.108 µM | 0.015 µM
C=CC(=O)N1CC(F)(C(=O)N2CCC(n3ncc(-c4cc(OC)c5c(C#N)cnn5c4)c3C)CC2)C1 [Example 85, 6-(1-(1-(1-acryloyl-3-fluoroazetidine-3-carbonyl)piperidin-4-yl)-5-methyl-1H-pyrazol-4-yl)-4-methoxypyrazolo[1,5-a]pyridine-3-carbonitrile] | 0.462 µM | 0.016 µM | 0.036 µM | 0.019 µM | 0.013 µM
